Test results published in doi:10.1101/2021.08.24.457553v1 (biorxiv, 2021).

Legend:
PfPKG [1] = molecular target: T1, PfPKG (Plasmodium falciparum, UniProt Q8I719); assay: in vitro PfPKG kinase inhibition assay; format: biochemical
PfPKG [2] = molecular target: T1, PfPKG; assay: in vitro PfPKG kinase inhibition assay; format: biochemical; conditions: […] compound
CYP3A4 = CYP3A4 (Homo sapiens, UniProt P08684); assay: in vitro CYP3A4 inhibition; format: cell-based
[3] = liver microsomes
hERG = hERG (Homo sapiens, UniProt Q12809); conditions: HEK293, 10 µM
[4] = liver microsomes; remark: listed apart in the source
in vitro [5] = assay: in vitro; set-up: species or system primary non-human primate hepatocytes; conditions: monkey, primary hepatocytes
P. berghei = assay: microbe, parasite or virus in culture; conditions: Plasmodium berghei, HepG2, read-out: % inhibition
2D6 = 2D6 (Homo sapiens, UniProt P10635); assay: biochemical
in vitro [6] = assay: in vitro; set-up: species or system primary non-human primate hepatocytes; conditions: monkey, primary hepatocytes; remark: listed apart in the source
2C9 = 2C9 (Homo sapiens, UniProt P11712); assay: biochemical
PfPKG [7] = molecular target: T1, PfPKG; assay: in vitro PfPKG kinase inhibition assay; format: biochemical; conditions: […] compound; remark: listed apart in the source

T1 sequence (Q8I719 whole entry): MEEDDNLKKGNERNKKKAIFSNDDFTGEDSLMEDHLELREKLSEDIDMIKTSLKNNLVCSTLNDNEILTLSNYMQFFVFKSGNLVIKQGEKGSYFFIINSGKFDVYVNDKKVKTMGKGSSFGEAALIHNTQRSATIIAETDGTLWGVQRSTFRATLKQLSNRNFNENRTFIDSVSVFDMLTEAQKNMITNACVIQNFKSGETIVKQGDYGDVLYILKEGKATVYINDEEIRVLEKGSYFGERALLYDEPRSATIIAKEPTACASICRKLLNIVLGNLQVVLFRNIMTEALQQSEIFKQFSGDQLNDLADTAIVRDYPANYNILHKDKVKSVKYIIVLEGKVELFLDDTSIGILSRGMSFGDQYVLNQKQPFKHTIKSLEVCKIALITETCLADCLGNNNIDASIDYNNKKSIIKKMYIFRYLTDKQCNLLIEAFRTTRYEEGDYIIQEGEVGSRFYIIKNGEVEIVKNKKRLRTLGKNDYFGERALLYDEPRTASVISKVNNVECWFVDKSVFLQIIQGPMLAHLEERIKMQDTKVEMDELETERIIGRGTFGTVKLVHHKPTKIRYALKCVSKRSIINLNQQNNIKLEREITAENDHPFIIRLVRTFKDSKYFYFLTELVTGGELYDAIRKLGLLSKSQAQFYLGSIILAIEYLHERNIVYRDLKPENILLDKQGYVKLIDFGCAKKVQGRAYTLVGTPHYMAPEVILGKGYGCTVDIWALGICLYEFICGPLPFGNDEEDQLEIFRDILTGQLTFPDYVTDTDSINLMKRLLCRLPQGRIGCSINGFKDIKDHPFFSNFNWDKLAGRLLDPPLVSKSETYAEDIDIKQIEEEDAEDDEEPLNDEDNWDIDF
CYP3A4, sequence (P08684 2-503): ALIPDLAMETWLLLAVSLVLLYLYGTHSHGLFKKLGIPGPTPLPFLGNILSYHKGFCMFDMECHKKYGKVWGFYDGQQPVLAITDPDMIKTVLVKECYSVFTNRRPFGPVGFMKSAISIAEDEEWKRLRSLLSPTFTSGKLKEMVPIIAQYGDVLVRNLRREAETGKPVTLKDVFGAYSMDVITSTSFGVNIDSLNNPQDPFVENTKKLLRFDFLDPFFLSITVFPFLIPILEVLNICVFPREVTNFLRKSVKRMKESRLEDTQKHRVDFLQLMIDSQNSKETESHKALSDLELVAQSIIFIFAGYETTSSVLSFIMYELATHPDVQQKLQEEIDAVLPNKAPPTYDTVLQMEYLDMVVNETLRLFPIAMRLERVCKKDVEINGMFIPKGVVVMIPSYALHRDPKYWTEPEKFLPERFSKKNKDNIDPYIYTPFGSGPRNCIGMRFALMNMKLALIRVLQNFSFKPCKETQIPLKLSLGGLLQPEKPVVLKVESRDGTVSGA
hERG, sequence (Q12809 whole entry): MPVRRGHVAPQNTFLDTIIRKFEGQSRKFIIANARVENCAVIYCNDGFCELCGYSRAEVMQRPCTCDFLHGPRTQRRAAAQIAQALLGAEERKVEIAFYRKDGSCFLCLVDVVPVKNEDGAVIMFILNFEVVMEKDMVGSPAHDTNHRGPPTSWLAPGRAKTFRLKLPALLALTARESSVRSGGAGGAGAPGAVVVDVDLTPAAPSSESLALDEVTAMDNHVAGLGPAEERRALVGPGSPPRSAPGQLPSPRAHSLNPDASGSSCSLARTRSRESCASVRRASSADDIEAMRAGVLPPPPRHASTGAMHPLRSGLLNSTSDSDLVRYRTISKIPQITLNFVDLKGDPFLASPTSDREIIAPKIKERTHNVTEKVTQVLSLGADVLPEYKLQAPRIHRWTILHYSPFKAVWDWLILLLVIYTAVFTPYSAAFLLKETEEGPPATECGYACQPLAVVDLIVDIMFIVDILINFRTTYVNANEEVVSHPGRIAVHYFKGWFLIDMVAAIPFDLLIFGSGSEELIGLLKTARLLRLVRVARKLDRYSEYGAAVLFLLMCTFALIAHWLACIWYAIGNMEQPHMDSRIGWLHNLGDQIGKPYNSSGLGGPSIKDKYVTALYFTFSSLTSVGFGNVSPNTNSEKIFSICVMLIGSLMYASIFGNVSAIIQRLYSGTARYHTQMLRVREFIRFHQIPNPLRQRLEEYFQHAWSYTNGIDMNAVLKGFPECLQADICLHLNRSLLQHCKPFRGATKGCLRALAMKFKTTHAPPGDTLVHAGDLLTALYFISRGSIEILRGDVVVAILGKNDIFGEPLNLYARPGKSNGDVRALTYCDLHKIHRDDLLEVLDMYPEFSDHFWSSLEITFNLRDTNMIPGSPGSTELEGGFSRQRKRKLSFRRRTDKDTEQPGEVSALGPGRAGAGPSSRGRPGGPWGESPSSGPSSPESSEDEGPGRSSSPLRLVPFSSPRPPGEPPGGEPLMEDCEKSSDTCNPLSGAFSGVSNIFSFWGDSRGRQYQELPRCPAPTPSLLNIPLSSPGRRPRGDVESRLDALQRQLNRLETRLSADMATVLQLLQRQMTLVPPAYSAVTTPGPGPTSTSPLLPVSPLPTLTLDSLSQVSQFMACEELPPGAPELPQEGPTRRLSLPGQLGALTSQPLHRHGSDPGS
2D6, sequence (P10635 whole entry): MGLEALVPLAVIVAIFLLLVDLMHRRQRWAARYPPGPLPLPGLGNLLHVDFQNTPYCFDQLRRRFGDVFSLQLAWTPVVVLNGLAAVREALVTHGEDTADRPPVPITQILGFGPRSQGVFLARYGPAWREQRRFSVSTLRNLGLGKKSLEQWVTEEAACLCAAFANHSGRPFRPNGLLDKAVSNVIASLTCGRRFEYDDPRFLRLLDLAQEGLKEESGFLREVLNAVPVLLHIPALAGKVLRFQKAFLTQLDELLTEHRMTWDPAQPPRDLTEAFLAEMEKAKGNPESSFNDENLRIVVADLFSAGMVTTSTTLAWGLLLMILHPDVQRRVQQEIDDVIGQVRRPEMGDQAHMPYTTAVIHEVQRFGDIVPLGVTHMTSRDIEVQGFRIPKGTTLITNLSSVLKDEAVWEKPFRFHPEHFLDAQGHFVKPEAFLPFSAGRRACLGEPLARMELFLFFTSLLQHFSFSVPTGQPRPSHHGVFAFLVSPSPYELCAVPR
2C9, sequence (P11712 whole entry): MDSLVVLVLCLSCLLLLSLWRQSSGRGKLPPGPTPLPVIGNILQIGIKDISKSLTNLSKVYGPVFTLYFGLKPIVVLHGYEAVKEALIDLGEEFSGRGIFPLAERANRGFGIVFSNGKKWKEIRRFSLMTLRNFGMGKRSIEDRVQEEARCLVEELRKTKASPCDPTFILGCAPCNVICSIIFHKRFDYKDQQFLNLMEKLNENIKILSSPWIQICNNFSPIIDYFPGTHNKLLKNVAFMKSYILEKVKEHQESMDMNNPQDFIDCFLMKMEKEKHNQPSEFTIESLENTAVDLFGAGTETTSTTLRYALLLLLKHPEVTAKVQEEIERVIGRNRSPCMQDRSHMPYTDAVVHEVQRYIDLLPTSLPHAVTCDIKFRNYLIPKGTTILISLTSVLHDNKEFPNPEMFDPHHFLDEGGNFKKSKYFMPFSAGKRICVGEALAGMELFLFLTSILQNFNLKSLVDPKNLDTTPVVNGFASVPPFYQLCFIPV

Work on `Cc1cn(-c2ccnc(N[C@@H]3CCN(C(=O)c4nccs4)C3)n2)c(-c2ccc(Cl)cc2)n1` [18c] yielded an IC50 (PfPKG [1]) of 1160 nM.

For `Cc1cn(-c2ccnc(NC3CCCN(C(=O)c4nccs4)C3)n2)c(-c2ccccc2)n1` (racemic) [10d], the “% inh @ 1 uM” value (PfPKG [2]) was 4%.

`Cc1cn(-c2ccnc(N[C@@H]3CCN(C(=O)c4nccs4)C3)n2)c(-c2cccc(OC(F)(F)F)c2)n1` [18d] showed an IC50 (PfPKG [1]) of 150 nM.

For `O=C(c1nccs1)N1CC[C@@H](Nc2nccc(-n3cc(C4CC4)nc3-c3ccccc3)n2)C1` [14a], the IC50 (CYP3A4) was < 300 nM, the “HLM t1/2” value [3] was 4.8 min and the “hERG % inh. @ 10 uM” value (hERG) was 1%. The IC50 (PfPKG [1]) was 100 nM and the “MLM t1/2” value [4] was < 2 min.

In the case of `Cc1cn(-c2ccnc(N[C@@H]3CCN(C(=O)c4nccs4)C3)n2)c(-c2ccccc2)n1` [10a], the CC50 at 96 h (in vitro [5]) is reported as > 20000 nM, the “HLM t1/2” value [3] is reported as < 2 min and the inhibition at 2 µM (P. berghei) is reported as 78 ± 20%. The inhibition at 10 µM (P. berghei) was 89 ± 7%, the IC50 (PfPKG [1]) was 320 nM and the IC50 (2D6) was > 10000 nM. For the same compound, the “MLM t1/2” value [4] was < 2 min, the CC50 at 96 h (in vitro [6]) was > 20000 nM and the IC50 (2C9) was > 10000 nM.

In the case of `Cc1cn(-c2ccnc(N[C@H]3CCN(C(=O)c4nccs4)C3)n2)c(-c2ccccc2)n1` [10c], the “% inh @ 1 uM” value (PfPKG [2]) is reported as 4%.

`Cc1cn(-c2ccnc(N[C@@H]3CCN(C(=O)c4ccn(C)n4)C3)n2)c(-c2ccccc2)n1` [10b] gave an IC50 (PfPKG [1]) of 1000 nM.

In the case of `Cc1cn(-c2ccnc(N[C@@H]3CCN(C(=O)c4nccs4)C3)n2)c(-c2ccccc2Cl)n1` [18b], the “% inhib @ 1 uM” value (PfPKG [7]) is reported as 47%.

For `O=C(c1nccs1)N1CC[C@@H](Nc2nccc(-n3cc(C4CC4)nc3-c3cccc(Cl)c3)n2)C1` [14b], the CC50 at 96 h (in vitro [5]) was > 20000 nM, the IC50 (CYP3A4) was < 300 nM and the “HLM t1/2” value [3] was 3.7 min. For the same compound, the inhibition at 2 µM (P. berghei) was 94 ± 3%, the inhibition at 10 µM (P. berghei) was 93 ± 3% and the “hERG % inh. @ 10 uM” value (hERG) was 9%. For the same compound, the IC50 (PfPKG [1]) was 60 nM, the “MLM t1/2” value [4] was <2 min and the CC50 at 96 h (in vitro [6]) was > 20000 nM.

Compound `COc1cccc(-c2nc(C)cn2-c2ccnc(N[C@@H]3CCN(C(=O)c4nccs4)C3)n2)c1` [18a] has an IC50 (PfPKG [1]) of 86 nM.
